Assay results published in article PMC9919983, “Screening Evaluation of Antiproliferative, Antimicrobial and Antioxidant Activity of Lichen Extracts and Secondary Metabolites In Vitro” (Plants, 2023).

Experiments:
[1] = design: method as in PMID 35448805; settings: pure compounds, compared to ascorbic acid; cited from earlier work
[2] = DPPH radical scavenging assay; settings: 30 min, absorbance 517 nm
Procedure: The free radical scavenging activity of lichen extracts was measured using 1,1-diphenyl-2-picryl-hydrazil (DPPH). The antioxidant activity via this method is described in several studies and here it is slightly modified. The extracts were dissolved in a small amount of pure DMSO and then filled with distilled water to a concentration of 1 mg/mL. In addition, 10 μL of 5% NaOH solution was added to help dissolve the extracts fully. Stock solutions were subsequently diluted to the desired concentrations. The reaction mixture consisted of 2 mL of DPPH methanolic solution (0.1 mM) and 1 mL of our extracts to reach a final volume of 3 mL. The samples were incubated at laboratory temperature in the dark for 30 min. After the incubation, the absorbance of the samples was measured at 517 nm in a spectrophotometer (multi-detection microplate reader; Synergy HT, BioTek, Winooski, VT, USA). Ascorbic acid was used as positive control. A solution of 5% DMSO (1 mL) in MeOH (2 mL) was used as a blank control. The DPPH radical concentration was calculated by the equation:Free radical scavenging activity (%) = [(A0 − A1)/A)] × 100(2) where A0 was the absorbance of negative control and A1 was the absorbance of the reaction mixture of our samples.

[3] = tested on: A2780; test: Resazurin screening assay, 3D spheroids; assay type: cell-based, human; settings: A2780 (Ovarian), 72 h, secondary metabolites and cisplatin
Procedure: (§1) All experiments were performed in triplicate.

[4] = tested on: BLM; test: Resazurin screening assay, 3D spheroids; assay type: cell-based, human; settings: BLM (Melanoma), 72 h, secondary metabolites and cisplatin
Procedure: as §1

[5] = tested on: HCT116; test: Resazurin screening assay, 3D spheroids; assay type: cell-based, human; settings: HCT116 (Colon), 72 h, secondary metabolites and cisplatin
Procedure: as §1

[6] = tested on: BJ-5ta; test: Resazurin screening assay, 3D spheroids; assay type: cell-based, human; settings: BJ-5ta (Skin Fibroblasts), non-cancerous, 72 h, secondary metabolites and cisplatin
Procedure: as §1

[7] = tested on: MCF-7; test: Resazurin screening assay, 3D spheroids; assay type: cell-based, human; settings: MCF-7 (Breast ER+), 72 h, secondary metabolites and cisplatin
Procedure: as §1

[8] = tested on: Jurkat; test: Resazurin screening assay, 3D spheroids; assay type: cell-based, human; settings: Jurkat (Leukemia), 72 h, secondary metabolites and cisplatin
Procedure: as §1

[9] = tested on: A549; test: Resazurin screening assay, 3D spheroids; assay type: cell-based, human; settings: A549 (Lung), 72 h, secondary metabolites and cisplatin
Procedure: as §1

[10] = tested on: HeLa; test: Resazurin screening assay, 3D spheroids; assay type: cell-based, human; settings: HeLa (Cervix), 72 h, secondary metabolites and cisplatin
Procedure: as §1

[11] = tested on: MCF-10A; test: Resazurin screening assay, 3D spheroids; assay type: cell-based, human; settings: MCF-10A (Breast Epithelial), non-cancerous, 72 h, secondary metabolites and cisplatin
Procedure: as §1

[12] = tested on: MDA-MB-231; test: Resazurin screening assay, 3D spheroids; assay type: cell-based, human; settings: MDA-MB-231 (Breast ER−), 72 h, secondary metabolites and cisplatin
Procedure: as §1

[13] = tested on: COS-7; test: Resazurin screening assay, 3D spheroids; assay type: cell-based; settings: COS-7 (Kidney Fibroblasts), non-cancerous, 72 h, secondary metabolites and cisplatin
Procedure: as §1

[14] = tested on: COS-7; test: Resazurin screening assay, 2D culture; assay type: cell-based; settings: COS-7 (Kidney Fibroblasts), non-cancerous, 72 h, secondary metabolites and cisplatin
Procedure: as §1

[15] = tested on: Jurkat; test: Resazurin screening assay, 2D suspension culture; assay type: cell-based, human; settings: Jurkat (Leukemia), 72 h, secondary metabolites and cisplatin
Procedure: as §1

[16] = tested on: A2780; test: Resazurin screening assay, 2D culture; assay type: cell-based, human; settings: A2780 (Ovarian), 72 h, secondary metabolites and cisplatin
Procedure: as §1

[17] = tested on: BLM; test: Resazurin screening assay, 2D culture; assay type: cell-based, human; settings: BLM (Melanoma), 72 h, secondary metabolites and cisplatin
Procedure: as §1

[18] = tested on: HCT116; test: Resazurin screening assay, 2D culture; assay type: cell-based, human; settings: HCT116 (Colon), 72 h, secondary metabolites and cisplatin
Procedure: as §1

[19] = tested on: BJ-5ta; test: Resazurin screening assay, 2D culture; assay type: cell-based, human; settings: BJ-5ta (Skin Fibroblasts), non-cancerous, 72 h, secondary metabolites and cisplatin
Procedure: as §1

[20] = tested on: MCF-7; test: Resazurin screening assay, 2D culture; assay type: cell-based, human; settings: MCF-7 (Breast ER+), 72 h, secondary metabolites and cisplatin
Procedure: as §1

[21] = tested on: A549; test: Resazurin screening assay, 2D culture; assay type: cell-based, human; settings: A549 (Lung), 72 h, secondary metabolites and cisplatin
Procedure: as §1

[22] = tested on: HeLa; test: Resazurin screening assay, 2D culture; assay type: cell-based, human; settings: HeLa (Cervix), 72 h, secondary metabolites and cisplatin
Procedure: as §1

[23] = tested on: MCF-10A; test: Resazurin screening assay, 2D culture; assay type: cell-based, human; settings: MCF-10A (Breast Epithelial), non-cancerous, 72 h, secondary metabolites and cisplatin
Procedure: as §1

[24] = tested on: MDA-MB-231; test: Resazurin screening assay, 2D culture; assay type: cell-based, human; settings: MDA-MB-231 (Breast ER−), 72 h, secondary metabolites and cisplatin
Procedure: as §1

[25] = tested on: Staphyloccocus aureus CCM 4223; test: Agar well-diffusion method; assay type: cell-based; settings: pure compound 0.57 mM

## COC(=O)c1c(C)cc(OC(=O)c2c(C)cc(O)c(C=O)c2O)c(C)c1O [A, atranorin]
[1]
  free radical scavenging activity in DPPH assay (in words): None of the tested compounds showed notable free radical scavenging activity

## O=C1O[C@H]([C@@H](O)CO)C(O)=C1O [Ascorbic acid]
[2]
  IC50 by DPPH radical scavenging assay: 7.7 ± 0.4 µg/mL

## N.N.[Cl][Pt][Cl] [CisPt, cisplatin]
[3]
  IC50: 134 µM
[4]
  IC50: 89.9 µM
[5]
  IC50: 98.4 µM
[6]
  IC50: 186 µM
[7]
  IC50: 78.3 µM
[8]
  IC50: 6.7 µM
[9]
  IC50: 119 µM
[10]
  IC50: 78 µM
[11]
  IC50: 121 µM
[12]
  IC50: 75.4 µM
[13]
  IC50: 154 µM
[14]
  IC50: 24.6 µM
[15]
  IC50: 6.3 µM
[16]
  IC50: 9.3 µM
[17]
  IC50: 29.5 µM
[18]
  IC50: 7.4 µM
[19]
  IC50: 37.9 µM
[20]
  IC50: 29.7 µM
[21]
  IC50: 23.5 µM
[22]
  IC50: 35.4 µM
[23]
  IC50: 25.9 µM
[24]
  IC50: 7.1 µM

## COc1cc(C)c(C(=O)Oc2cc(C)c(C(=O)O)c(O)c2)c(O)c1 [EA, evernic acid]
[1]
  free radical scavenging activity in DPPH assay (in words): None of the tested compounds showed notable free radical scavenging activity

## Cc1cc(OC(=O)c2c(C)cc(OC(=O)c3c(C)cc(O)cc3O)cc2O)cc(O)c1C(=O)O [GA, gyrophoric acid]
[1]
  free radical scavenging activity in DPPH assay (in words): None of the tested compounds showed notable free radical scavenging activity

## CCCCCC(=O)Cc1cc(O)cc2c1C(=O)Oc1cc(O)c(C(=O)O)c(CCCCC)c1O2 [Phy, physodic acid]
[25]
  effectiveness among the chosen secondary metabolites (in words): most effective
[25]; relative inhibition zone diameter vs gentamicin 50 µg/mL
  % RIZD S. aureus: 118.78%
[1]
  free radical scavenging activity in DPPH assay (in words): None of the tested compounds showed notable free radical scavenging activity
